Measurements taken from publication PMC3429506, “Screening for Novel LRRK2 Inhibitors Using a High-Throughput TR-FRET Cellular Assay for LRRK2 Ser935 Phosphorylation” (PLoS ONE, 2012).

Assays:
LRRK2 G2019S [1] = target: T1, LRRK2 G2019S (Homo sapiens, UniProt Q5S007, G2019S); experiment: In vitro biochemical LRRK2 TR-FRET activity assay; conditions: LRRK2 G2019S, ATP 134 µM (Km,app), LRRKtide substrate, three independent experiments; read-out: Biochemical LRRK2 assay IC50 +/- SD
LRRK2 G2019S [2] = target: T1, LRRK2 G2019S; experiment: TR-FRET cellular assay for LRRK2 Ser935 phosphorylation, HEK293T cells, BacMam LRRK2-GFP G2019S; design: This high-throughput assay utilizes cells expressing full-length human LRRK2 with a C-terminal GFP tag (LRRK2-GFP); host or cells: HEK293T cells transduced with BacMam; conditions: +/- SD, three independent experiments, * = partial inhibition, read-out: IC50, TR-FRET cell-based assay for Ser935 phosphorylation of LRRK2
Procedure: (§1) U-2 OS cells are maintained in growth medium (McCoy’s 5A supplemented with 10% dialyzed FBS (dFBS), 10 mM HEPES, 0.1 mM NEAA, 1 mM Sodium Pyruvate, and 100 U/mL Penicillin/100 µg/mL Streptomycin). HEK293T cells are maintained in DMEM with 10% dFBS, 10 mM HEPES, 0.1 mM NEAA and 100 U/mL Penicillin/100 µg/mL Streptomycin. SH-SY5Y cells are maintained in DMEM/F-12 medium supplemented with 10% dFBS and 100 U/mL Penicillin/100 µg/mL Streptomycin. […] GIBCO® human neural stem cells (hNSCs) were propagated as an adherent culture in StemPro® NSC SFM according to the manufacturer’s recommended protocol (Life Technologies). For BacMam transduction of U-2 OS and HEK293T, cells were harvested, mixed with various amounts of BacMam LRRK2-GFP reagent (v/v) and plated onto 6-well plates. […] Cells were assayed in 384-well format (∼20,000 cells/well) 48 hours post-transduction as above.
(§2) Transduced cells in the 384-well assay plate were incubated with indicated inhibitors (5X, 5 µL/well) for 60 to 90 minutes. During this time, 6 X lysis buffer (Life Technologies) was supplemented with 30 nM Tb-labeled anti-LRRK2 pSer935 antibody and both protease and phosphatase inhibitor cocktails (Sigma). The complete 6 X lysis buffer was added to each well (5 µL/well) and the plates were incubated at room temperature in the dark for 2 hours. […] A sigmoidal dose-response equation with varying slope was used to fit the data and generate IC50 values. Z′-factor values were calculated as: Z′-factor = 1 - [(3 × stdevno virus +3 × stdevmaxvirus)/(avgmaxvirus – avgno-virus)]. The IC50 values reported in Table 1 are the averaged numbers from three independent experiments.

LRRK2 wild-type = LRRK2 wild-type (Homo sapiens, UniProt Q5S007); experiment: TR-FRET cellular assay for LRRK2 Ser935 phosphorylation, HEK293T cells, BacMam LRRK2-GFP wild-type; design: This high-throughput assay utilizes cells expressing full-length human LRRK2 with a C-terminal GFP tag (LRRK2-GFP); host or cells: HEK293T cells transduced with BacMam; conditions: WT, +/- SD, three independent experiments, * = partial inhibition, read-out: IC50, TR-FRET cell-based assay for Ser935 phosphorylation of LRRK2
Procedure: as §1, §2

LRRK2-GFP [3] = experiment: Western blot analysis of LRRK2-GFP phosphorylation in BacMam transduced U-2 OS cells; type: cell-based, human; conditions: LRRK2-IN-1 3 µM 90 min, wild-type, G2019S, R1441C, Figure 1B
Procedure: (§3) Immunoblot analysis: BacMam LRRK2-GFP transduced U-2 OS or SH-SY5Y cells (10^7 cells) were left untreated or treated with 3 µM LRRK2-IN-I for 90 min. For lysate preparation, the cells were washed once with ice-cold PBS and lysed by addition of ice-cold lysis buffer (20 mM Tris-HCl, pH 7.4, 1% NP-40, 5 mM EDTA, 5 mM NaF, 150 mM NaCl, and 1∶100 of protease and phosphatase inhibitor cocktails). The lysate was cleared of debris by centrifugation. Equal amount of total protein was loaded onto each lane for SDS-PAGE (3–8% Tris Acetate). The proteins were transferred onto nitrocellulose membrane using the iBLOT® dry blotting system (Life Technologies) according to manufacturer’s protocol. The membranes were blocked and incubated with a primary antibody against LRRK2 (Cell Signaling Technologies), followed by incubation with alkaline phosphatase-conjugated secondary antibody (WesternBreeze® chromogenic Kit, Life Technologies). The blot was developed by using the chromogenic BCIP/NBT substrate (WesternBreeze® chromogenic Kit, Life Technologies). […]

LRRK2-GFP [4] = target: T2, LRRK2-GFP (Homo sapiens, UniProt Q5S007, G2019S); experiment: as above; type: cell-based; conditions: BacMam LRRK2-GFP G2019S, 10 µM, Figure S1
T2 construct: GFP is fused to the C-terminus of full-length human LRRK2 wild-type, G2019S, R1441C and kinase-dead D1994A; host or cells: U-2 OS cells transduced with BacMam
Procedure: as §3

T1 sequence (Q5S007 whole entry G2019S): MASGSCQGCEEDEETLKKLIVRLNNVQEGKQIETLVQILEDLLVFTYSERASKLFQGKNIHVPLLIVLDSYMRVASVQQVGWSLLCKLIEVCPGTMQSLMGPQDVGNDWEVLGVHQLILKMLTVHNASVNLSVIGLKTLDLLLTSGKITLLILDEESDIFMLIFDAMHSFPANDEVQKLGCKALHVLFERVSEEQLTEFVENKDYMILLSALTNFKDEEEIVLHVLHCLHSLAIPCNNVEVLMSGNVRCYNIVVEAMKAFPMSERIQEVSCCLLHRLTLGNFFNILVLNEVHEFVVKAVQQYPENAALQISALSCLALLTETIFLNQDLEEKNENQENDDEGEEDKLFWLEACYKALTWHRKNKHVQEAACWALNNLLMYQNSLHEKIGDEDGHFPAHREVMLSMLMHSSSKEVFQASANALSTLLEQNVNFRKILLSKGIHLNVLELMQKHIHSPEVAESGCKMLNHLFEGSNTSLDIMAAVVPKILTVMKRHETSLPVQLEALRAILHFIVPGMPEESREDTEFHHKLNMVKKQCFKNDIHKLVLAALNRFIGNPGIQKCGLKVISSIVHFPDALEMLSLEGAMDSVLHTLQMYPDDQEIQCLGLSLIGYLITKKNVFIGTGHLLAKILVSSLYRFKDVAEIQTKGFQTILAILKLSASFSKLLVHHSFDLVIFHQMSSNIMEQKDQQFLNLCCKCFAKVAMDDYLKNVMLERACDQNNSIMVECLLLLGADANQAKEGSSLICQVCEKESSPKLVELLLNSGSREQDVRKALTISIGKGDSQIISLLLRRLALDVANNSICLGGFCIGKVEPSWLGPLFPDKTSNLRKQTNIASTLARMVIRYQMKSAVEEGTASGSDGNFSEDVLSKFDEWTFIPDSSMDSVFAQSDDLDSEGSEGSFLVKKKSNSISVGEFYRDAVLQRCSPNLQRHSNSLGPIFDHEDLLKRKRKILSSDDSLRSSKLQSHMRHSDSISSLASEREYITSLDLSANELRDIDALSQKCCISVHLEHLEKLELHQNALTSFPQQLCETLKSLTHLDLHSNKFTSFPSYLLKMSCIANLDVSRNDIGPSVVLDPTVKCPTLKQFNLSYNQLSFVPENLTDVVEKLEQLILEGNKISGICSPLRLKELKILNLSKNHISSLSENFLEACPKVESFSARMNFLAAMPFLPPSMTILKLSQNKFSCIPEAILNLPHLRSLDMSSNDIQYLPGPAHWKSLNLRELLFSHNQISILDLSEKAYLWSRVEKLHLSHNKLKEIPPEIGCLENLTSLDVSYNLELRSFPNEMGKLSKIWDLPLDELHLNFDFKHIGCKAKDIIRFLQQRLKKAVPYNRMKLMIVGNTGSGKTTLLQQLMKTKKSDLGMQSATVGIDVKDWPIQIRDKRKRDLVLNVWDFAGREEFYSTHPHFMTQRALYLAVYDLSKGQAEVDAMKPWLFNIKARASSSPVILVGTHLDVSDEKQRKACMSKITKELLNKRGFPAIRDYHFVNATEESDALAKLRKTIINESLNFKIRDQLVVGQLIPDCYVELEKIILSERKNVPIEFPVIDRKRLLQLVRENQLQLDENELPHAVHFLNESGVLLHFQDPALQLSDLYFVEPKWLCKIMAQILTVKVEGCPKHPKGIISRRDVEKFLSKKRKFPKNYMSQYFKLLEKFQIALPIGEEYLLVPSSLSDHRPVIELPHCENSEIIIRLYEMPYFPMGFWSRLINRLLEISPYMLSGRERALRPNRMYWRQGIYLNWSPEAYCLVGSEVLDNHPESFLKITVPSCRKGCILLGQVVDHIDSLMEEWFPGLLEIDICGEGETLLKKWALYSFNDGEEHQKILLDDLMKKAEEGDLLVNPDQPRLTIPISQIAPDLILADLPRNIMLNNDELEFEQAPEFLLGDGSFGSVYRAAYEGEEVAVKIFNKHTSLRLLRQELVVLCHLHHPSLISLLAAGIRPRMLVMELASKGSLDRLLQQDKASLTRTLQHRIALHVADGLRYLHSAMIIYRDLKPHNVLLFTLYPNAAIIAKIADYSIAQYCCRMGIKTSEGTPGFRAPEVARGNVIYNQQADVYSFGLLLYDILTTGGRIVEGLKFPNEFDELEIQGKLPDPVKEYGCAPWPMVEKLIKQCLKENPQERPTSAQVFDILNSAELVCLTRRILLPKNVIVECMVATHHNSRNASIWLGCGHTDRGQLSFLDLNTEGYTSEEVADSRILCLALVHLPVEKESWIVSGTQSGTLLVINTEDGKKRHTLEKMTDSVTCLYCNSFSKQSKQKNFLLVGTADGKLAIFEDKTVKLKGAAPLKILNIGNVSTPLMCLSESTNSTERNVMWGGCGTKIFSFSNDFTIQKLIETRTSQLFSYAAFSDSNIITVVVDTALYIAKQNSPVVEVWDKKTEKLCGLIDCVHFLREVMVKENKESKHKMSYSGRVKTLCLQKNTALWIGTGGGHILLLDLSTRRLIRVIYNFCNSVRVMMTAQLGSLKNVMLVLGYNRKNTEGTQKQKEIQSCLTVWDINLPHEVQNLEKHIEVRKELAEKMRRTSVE
LRRK2 wild-type, sequence (Q5S007 whole entry): as the sequence (Q5S007 whole entry G2019S) above, with S2019G counted along it
T2 sequence (Q5S007 whole entry G2019S, the tested form may be a part): as the sequence (Q5S007 whole entry G2019S) above

## COc1cc(C(=O)N2CCC(N3CCN(C)CC3)CC2)ccc1Nc1ncc2c(n1)N(C)c1ccccc1C(=O)N2C [LRRK2-IN-1]
LRRK2 G2019S [1]
  IC50: 10 nM
LRRK2 G2019S [2]
  IC50: 60 nM
LRRK2 wild-type
  IC50: 120 nM
LRRK2-GFP [3]
  Ser935 phosphorylation by Western blot: diminished
LRRK2-GFP [4]
  phosphorylation at Ser910, Ser935, Ser955 and Ser973 by immunoblot: responsive to LRRK2-IN-1 treatment
